Key:
[1] = system: sixty human tumour cell lines; assay: cells; details: read-out: GI50 value against sixty cell lines in nine cell panels
Method: For each compound, dose response curves for each cell line were measured at a minimum of five concentrations at 10 fold dilutions. A protocol of 48 h continuous drug exposure was used and a sulforhodamine B (SRB) protein assay was used to estimate cell viability or growth. The concentration causing 50% cell growth inhibition (G150), total cell growth inhibition (TGI 0% growth) and 50% cell death (LC50, −50% growth) compared with the control was calculated.

Lung A-549 = details: human
Ovary OVCAR-5 = details: human
Colon HCT-15 = details: human
Colon 502713 = details: human
Neuroblastoma IMR-32 = details: human

Row | SMILES | GI50 [1] [nM] | Preliminary in vitro cytotoxicity data (Lung A-549) [%] | Preliminary in vitro cytotoxicity data (Ovary OVCAR-5) [%] | Preliminary in vitro cytotoxicity data (Colon HCT-15) [%] | Preliminary in vitro cytotoxicity data (Colon 502713) [%] | Preliminary in vitro cytotoxicity data (Neuroblastoma IMR-32)
1 | COc1cc2c(cc1OCCCN1CCN(C(=S)SCCC(C#N)(c3ccccc3)c3ccccc3)CC1)N=C[C@@H]1CCCN1C2=O [Compound 12b, 3-cyano-3,3-diphenylpropyl 4-(3-[(11aS)-7-(methyloxy)-5-oxo-2,3,5,11a-tetrahydro-1H-benzo[e]pyrrolo[1,2-a][1,4]diazepin-8-yl]oxypropyl)hexahydro-1-pyrazinecarbodithioate] | < 2690 | – | – | – | – | –
2 | COc1cc2c(cc1OCCCCN1CCN(C(=S)SCCC(C#N)(c3ccccc3)c3ccccc3)CC1)N=C[C@@H]1CCCN1C2=O [Compound 12c, 3-cyano-3,3-diphenylpropyl 4-(4-[(11aS)-7-(methyloxy)-5-oxo-2,3,5,11a-tetrahydro-1H-benzo[e]pyrrolo[1,2-a][1,4]diazepin-8-yl]oxybutyl)hexahydro-1-pyrazinecarbodithioate] | – | 31 | 24 | 75 | 75 | 88
